Values quoted from earlier work, collected in patent US20060128641A1, “Levamisole, avermectins or similar in pyrrolidone solvent” (priority 2002, published 2006).

Assays:
Ostertagia = settings: background table, cattle parasites
[1] = previously found
Cooperia = settings: background table, cattle parasites
[2] = background

- pH required for stability [1]: less than 4
- solubility in water [2]: water soluble
Compound: c1ccc([C@H]2CN3CCSC3=N2)cc1 [Levamisole]
- Ostertagia Efficacy (Ostertagia): Poor
- Cooperia Efficacy (Cooperia): Good
